Assay results reported in US8945597B2, “Botanical insecticides” (priority 2012, dated 2015).

Test system: Aphid nymphs (Aphis medicagini)
Assay: Insecticidal efficacy test against aphid nymphs (leaf disc dip)
Type: in vivo
Settings: concentration 20 mg/L; leaf disc dipped 5 seconds; mortality after 24 hours
Method: Insecticidal Efficacy Test Against Aphid Nymphs (Aphis medicagini)
Take the first preferred embodiment, diluted in water in two different concentrations, A with 1% weight content of active ingredients, B with 0.1% active ingredients. Vicia leaf cut into round disc in 2 cm diameter, back up placed on a small cotton ball, and then mounted in a Petri dish, 5 ml water is added. Mature aphids are transferred onto the leaf disc to hatch aphid nymphs. Mature aphids are removed after 24 hours and 20-30 aphid nymphs are left on the leave disc and continue to culture for one day. The leave disc with aphid nymphs is merged into solution A and B for 5 seconds, excessive fluid on the leaf surface is absorbed by paper tower. Leaf disc is then mounted back to the cotton ball for another 24 hours observation. Use Nitenpyram 20 mg/L for comparison and water as control.

Question: For `CCN(Cc1ccc(Cl)nc1)/C(=C/[N+](=O)[O-])NC` [Nitenpyram], which MOTALITY % is on record?
Answer: 100%

Test system: planthopper nymphs (nilaparvata legen)
Assay: Insecticidal efficacy test against planthopper nymphs (POTTER sprayer)
Type: in vivo
Settings: concentration 20 mg/L; sprayed; mid 3rd instar nymphs; mortality after 72 hours
Method: Insecticidal efficacy test against planthopper nymphs (nilaparvata legen). Some rice seedling leaves are mounted with white quartz sand in a Petri dish with 5 cm diameter containing 5 ml water. Planthoppers nymphs of mid 3rd instar were anesthetized by CO2. 20-30 anesthetized nymphs are transferred to each Petri dish and placed under the POTTER sprayer. Same amount of testing chemical is sprayed into each Petri dish and covered with transparent plastic cup. Use nitenpyram 20 mg/L for comparison and water as control.

Question: `CCN(Cc1ccc(Cl)nc1)/C(=C/[N+](=O)[O-])NC` [Nitenpyram] was tested. Which MOTALITY % did it give?
Answer: 100%

Test system: pest insects
Assay: Insecticidal properties of terpenes/terpenoids (test not described)
Settings: tested and proved; test details not given

Question: With `C[C@@H]1CC[C@H]2C(C)(C)C3C[C@@]12CC[C@@]3(C)O` [Embodiment 8-epicedrol, 8-epicedrol] as the compound, how does the insecticidal properties read?
Answer: significant insecticidal properties

Question: With ocimene as the compound, how does the insecticidal properties read?
Answer: significant insecticidal properties

Question: For `Cc1ccc(C(C)C)cc1` [p-cymene], which insecticidal properties is on record?
Answer: significant insecticidal properties

Question: pinene was tested. Which insecticidal properties did it give?
Answer: significant insecticidal properties

Question: With `CC(C)[C@@H]1CC[C@@H](C)C[C@H]1O` [3-p-menthanol] as the compound, how does the insecticidal properties read?
Answer: significant insecticidal properties

Question: Which insecticidal properties does the source give for `C=CCS[S@@+]([O-])CC=C` (stereo in doubt) [allicin] here?
Answer: significant insecticidal properties

Question: For `C=C1CC/C=C(\C)CC[C@@H]2[C@@H]1CC2(C)C` [β-caryophyllene], which insecticidal properties is on record?
Answer: significant insecticidal properties

Question: For `CC12CCC(CC1)C(C)(C)O2` [1,8-cineole], which insecticidal properties is on record?
Answer: significant insecticidal properties
